Tests used:
Assay in all cases: relative viability (nuclei count vs DMSO), 5 days (fraction); higher = more cells survive
Bleomycin + Alpelisib = compound: CC1=C(N=C(N=C1N)[C@H](CC(=O)N)NC[C@@H](C(=O)N)N)C(=O)N[C@@H]([C@H](C2=CN=CN2)OC3C(C(C(C(O3)CO)O)O)OC4C(C(C(C(O4)CO)O)OC(=O)N)O)C(=O)N[C@H](C)[C@H]([C@H](C)C(=O)N[C@@H]([C@@H](C)O)C(=O)NCCC5=NC(=CS5)C6=NC(=CS6)C(=O)NCCC[S+](C)C)O [Bleomycin] + Cc1nc(NC(=O)N2CCC[C@H]2C(N)=O)sc1-c1ccnc(C(C)(C)C(F)(F)F)c1 [Alpelisib] (partner 2 µM); conditions: main component drawn
Outline: (§1)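 Lung cancer cell lines were seeded in 1536-well plates and dosed by pin tool the next day, with either a single drug or a fixed anchor-drug dose combined with five library-drug doses (not always all listed) spaced in √10 steps. Five days later, one step fixed the cells and stained their nuclei (final 0.05% Triton X-100, 1% formaldehyde, 1 ug/ml Hoechst), and nuclei were counted on 4× images. Relative viability is the nuclei count in treated wells divided by the count in vehicle wells, and each value is the median of duplicate plates.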

Bleomycin + Vorinostat = compound: CC1=C(N=C(N=C1N)[C@H](CC(=O)N)NC[C@@H](C(=O)N)N)C(=O)N[C@@H]([C@H](C2=CN=CN2)OC3C(C(C(C(O3)CO)O)O)OC4C(C(C(C(O4)CO)O)OC(=O)N)O)C(=O)N[C@H](C)[C@H]([C@H](C)C(=O)N[C@@H]([C@@H](C)O)C(=O)NCCC5=NC(=CS5)C6=NC(=CS6)C(=O)NCCC[S+](C)C)O [Bleomycin] + O=C(CCCCCCC(=O)Nc1ccccc1)NO [Vorinostat] (partner 1 µM); conditions: main component drawn
Outline: as §1

Bleomycin + Foretinib = compound: CC1=C(N=C(N=C1N)[C@H](CC(=O)N)NC[C@@H](C(=O)N)N)C(=O)N[C@@H]([C@H](C2=CN=CN2)OC3C(C(C(C(O3)CO)O)O)OC4C(C(C(C(O4)CO)O)OC(=O)N)O)C(=O)N[C@H](C)[C@H]([C@H](C)C(=O)N[C@@H]([C@@H](C)O)C(=O)NCCC5=NC(=CS5)C6=NC(=CS6)C(=O)NCCC[S+](C)C)O [Bleomycin] + COc1cc2c(Oc3ccc(NC(=O)C4(C(=O)Nc5ccc(F)cc5)CC4)cc3F)ccnc2cc1OCCCN1CCOCC1 [Foretinib] (partner 0.25 µM); conditions: main component drawn
Outline: as §1

Etoposide + Vorinostat = compound: COc1cc([C@@H]2c3cc4c(cc3[C@@H](O[C@@H]3O[C@@H]5CO[C@@H](C)O[C@H]5[C@H](O)[C@H]3O)[C@H]3COC(=O)[C@H]23)OCO4)cc(OC)c1O [Etoposide] + O=C(CCCCCCC(=O)Nc1ccccc1)NO [Vorinostat] (partner 1 µM)
Outline: as §1

Work on UMC-11 yielded a relative viability (Bleomycin + Alpelisib; first compound 0.01 µM) of 0.873, a relative viability (Bleomycin + Alpelisib; first compound 0.03162 µM) of 0.935 and a relative viability (Bleomycin + Alpelisib; first compound 0.1 µM) of 0.826. The relative viability (Bleomycin + Alpelisib; first compound 0.3162 µM) was 0.598, the relative viability (Bleomycin + Alpelisib; first compound 1 µM) was 0.44 and the relative viability (Bleomycin + Vorinostat; first compound 0.01 µM) was 0.364. The relative viability (Bleomycin + Vorinostat; first compound 0.03162 µM) was 0.346, the relative viability (Bleomycin + Vorinostat; first compound 0.1 µM) was 0.311 and the relative viability (Bleomycin + Vorinostat; first compound 0.3162 µM) was 0.278. It also gave a relative viability (Bleomycin + Vorinostat; first compound 1 µM) of 0.232, a relative viability (Bleomycin + Foretinib; first compound 0.01 µM) of 0.93 and a relative viability (Bleomycin + Foretinib; first compound 0.03162 µM) of 1.02. It also gave a relative viability (Bleomycin + Foretinib; first compound 0.1 µM) of 1.06, a relative viability (Bleomycin + Foretinib; first compound 0.3162 µM) of 0.742 and a relative viability (Bleomycin + Foretinib; first compound 1 µM) of 0.574. For the same cell line, the relative viability (Etoposide + Vorinostat; first compound 0.01 µM) was 0.373, the relative viability (Etoposide + Vorinostat; first compound 0.03162 µM) was 0.376 and the relative viability (Etoposide + Vorinostat; first compound 0.1 µM) was 0.323. For the same cell line, the relative viability (Etoposide + Vorinostat; first compound 0.3162 µM) was 0.228 and the relative viability (Etoposide + Vorinostat; first compound 1 µM) was 0.199.
